Experimental data from ChEMBL document CHEMBL1132057, “Effects of 3alpha- and 3beta-galactosylated alpha-galactosylceramides on the immune system” (1999).

Columns and labels:
Type in all cases: functional
Mus musculus [1] = species on record: Mus musculus; assay: Effect on the proliferation of murine spleen cells evaluated in terms of [3H]TdR uptake into the cells at a concentration of 1 ng/mL
Mus musculus [2] = species on record: Mus musculus; assay: Effect on the proliferation of murine spleen cells evaluated in terms of [3H]TdR uptake into the cells at a concentration of 100 ng/mL
Mus musculus [3] = species on record: Mus musculus; assay: Effect on the proliferation of murine spleen cells evaluated in terms of [3H]TdR uptake into the cells at a concentration of 10 ng/mL

SMILES | 3H-TdR incorpolation (Mus musculus [1]) | 3H-TdR incorpolation (Mus musculus [2]) | 3H-TdR incorpolation (Mus musculus [3])
CCCCCCCCCCCCCCCCCCCCCC[C@@H](O)C(=O)N[C@@H](CO[C@H]1O[C@@H](CO)[C@H](O)[C@H](O)[C@@H]1O)[C@H](O)CCCCCCCCCCCCCCC | 9454 c.p.m. | 45966 c.p.m. | 20283 c.p.m.
CCCCCCCCCCCCCCC[C@@H](O[C@H]1O[C@@H](CO)[C@H](O)[C@H](O)[C@@H]1O)[C@H](CO)NC(=O)CCCCCCCCCCCCC | 7722 c.p.m. | 6141 c.p.m. | 7412 c.p.m.
CCCCCCCCCCCCCCCCCCCCCC[C@@H](O)C(=O)N[C@@H](CO[C@H]1O[C@@H](CO)[C@H](O)[C@H](O)[C@@H]1O)[C@@H](CCCCCCCCCCCCCCC)O[C@H]1O[C@@H](CO)[C@H](O)[C@H](O)[C@@H]1O | 16138 c.p.m. | 44867 c.p.m. | 34892 c.p.m.
CCCCCCCCCCCCCCCCCCCCCC[C@@H](O)C(=O)N[C@@H](CO[C@H]1O[C@@H](CO)[C@H](O)[C@H](O)[C@@H]1O)[C@@H](CCCCCCCCCCCCCCC)O[C@@H]1O[C@@H](CO)[C@H](O)[C@H](O)[C@@H]1O | 7892 c.p.m. | 45036 c.p.m. | 13195 c.p.m.
CCCCCCCCCCCCCCC[C@@H](O)[C@H](CO[C@H]1O[C@@H](CO)[C@H](O)[C@H](O)[C@@H]1O)NC(=O)CCCCCCCCCCCCC | 9018 c.p.m. | 44395 c.p.m. | 44395 c.p.m.
